Test results published in EP0710485A1, “use of anserine in the manufacture of a medicament for stimulating hematopoiesis” (SUNTORY LIMITED, priority 1994, dated 1996).

Columns and labels:
[1] = test system: bone marrow cells; test: Spontaneous proliferation of bone marrow cells (3H-thymidine uptake) from cyclophosphamide-treated mice; assay type: in vivo, ICR mice
Description: 300 mg/kg dose of cyclophosphamide (CY) was intraveously injected into 7-week-old ICR mice. […] The number of cells per femur for each mouse was counted, and the bone marrow cells for each test group were plated on a 96-well microplate (2 X 100,000 cells/well), and at the same time 0.5µ Ci/well of ^3H-thymidine was added. The cells were cultured for 5 hours, and radioactivity (C.P.M) was measured with a liquid scintillation counter. An experiment was carried out using 3 animals per group, and the results are shown by mean value ± standard error. Spontaneous proliferation ability of bone marrow cells for each group was shown in the parentheses by percentage by taking spontaneous proliferation of bone marrow cells at 0 day (untreated) as 100%.

[2] = test system: IL-3; test: IL-3 productivity of spleen cells of cyclophosphamide-treated mice (FDCP-2 cell MTT assay); assay type: in vivo, ICR mice; details: for IL-3 productivity of the spleen cells: CY 300 mg/kg i.v. + L-anserine 100 mg/kg every day; for productivity of IL-3 by spleen cells: CY 300 mg/kg i.v. alone
Description: 300 mg/kg dose of cyclophosphamide (CY) was intraveously injected to 7-week old ICR mice. To L-anserine (Ans)-administration group, 100 mg/kg dose of L-anserine was administrated every day from the day on which cyclophosphamide was administrated. On the third, fifth and seventh days from the administration of cyclophosphamide, spleen cells of the mouse were taken and the cells (5 × 10^6 cells/ml) were cultured in a 10% FCS-RPMI 1640 medium supplemented with 2 µg/ml of concanavalin A for 24 hours, and the supernatant was assayed for IL-3. The IL-3 activity was measured by plating 1×10^4 cells/well of IL-3 dependent FDCP-2 cells on a 96 well microtiter plate, adding twofold stepwise-diluted supernatant to the wells, culturing the cells for 24 hours, and measuring a ratio of surviving FDCP-2 cells by MTT assay using 3-(4,5-dimethylthyazol-2yl)-2,5-diphenyl tetrazolium bromide. Using a culture supernatant of WEHI cells as IL-3 standard, a concentration of IL-3 which provides 50% growth per the maximum growth of the cultured FDCP-2 cells was defined as 1 unit, and I L-3 activity of a sample was obtained by calculating a sample dilution ratio which provides 50% of the maximum absorption in the standard curve.

[3] = test system: mouse bone marrow cells; test: Colony Forming Unit in Spleen (CFU-s), transplant method, in X-ray irradiated mice; assay type: in vivo, C57BL/6 mouse; details: X-ray 6 Gy, 5 x 10^4 bone marrow cells transplanted, spleen colonies after eight days; L-anserine 100 mg/kg s.c. every day to the seventh day; versus X-ray control group
Description: Colony Forming Unit in Spleen (CFU-s) of mouse bone marrow cells in mouse radiated with X-ray was carried out using a transplant method. The X-ray radiation was carried out using an MBR-1520 type R X-ray radiation apparatus manufactured by Hitachi Medico. The mice were irradiated with X-rays such that the radiation dose rate was 1.16 Gy/min (150 kV, 20 mA, Filter: 0.5 mm Al + 0.1 mm Cu), and the radiation dose was 6 Gy. 5 × 10^4 bone marrow cells of normal C57BL/6 mouse were injected into a tail vein of a radiated recipient female C57BL/6 mouse. Eight days later, the spleen of the mouse was removed and fixed with Bouin solution, and the number of cell colonies formed on the spleen surface were counted. To the L-anserine-administration group 100 mg/kg dose of L-anserine was subcutaneously administrated every day from the day on which X-ray was radiated to the seventh day, and to the chicken extract-administration group 0.5 ml/head dose of chicken extract containing 2mg/ml of L-anserine was orally administrated every day from the day on which X-ray was radiated to the seventh day.

[4] = test system: leukocytes; test: Leukocyte number recovery in mice given cyclophosphamide; assay type: in vivo, C57BL mice; details: for The number of leukocytes: Ans 100 mg/kg s.c. every day where given, mean ± standard error, 5 animals
Source text: On the seventh, eighth and ninth days from the administration of cyclophosphamide blood samples were taken from the orbital venosus plexus of the mouse, and the number of leukocytes was counted by an automatic hemacytometer.

[5] = test system: erythrocytes; test: Prevention of anemia in mice given cyclophosphamide; assay type: in vivo, C57BL-mice
Description: 7-week old C57BL-mice were intravenously injected with cyclophosphamide (CY) in a dose of 300 mg/kg. L-anserine (Ans) was subcutaneously administered every day in a dose of 100 mg/kg from the day on which cyclophosphamide was administered. After 1, 3, 5, 7 and 9 days from the administration of cyclophosphamide (for L-anserine, after 3, 5 and 7 days), blood samples were taken from the orbital venosus plexus of the mouse, and the number of erythrocyte and the amount of hemoglobin were measured by an automatic hemacytometer. The experiment was carried out using three mice per experimental group, and the results are shown as mean ± standard error.

[6] = test system: erythrocytes; test: Treatment of anemia in mice irradiated with X-ray; assay type: in vivo, C57BL/mice; details: 4.0 Gy X-ray; L-anserine 100 mg/kg s.c. for 10 days; 14th day from irradiation
Description: 7-week old C57BL/mice were systemically irradiated with 4.0 Gy of X-ray. L-anserine was subcutaneously injected continuously for 10 days from the day on which X-ray was irradiated in a dose of 100 mg/kg. On 14th day from the irradiation of X-ray, blood samples were taken from the orbital venosus plexus of mice, and the number of erythrocytes and amount of hemoglobin were measured by an automatic hemacytometer. The experiment used three mice for one experimental group, and the results are shown as mean ± standard error.

[7] = test system: colony stimulating activity (CSA) in serum; test: Colony stimulating activity (CSA) in serum of cyclophosphamide-treated mice
Description: 300 mg/kg dose of cyclophosphamide (CY) was intravenously injected into 7-week-old ICR mice. 100 mg/kg dose of L-anserine (Ans) was subcutaneously injected every day from the day on which cyclophosphamide was administered. On the first, third, fifth, seventh and ninth days from the administration of cyclophosphamide (on the third, fifth and seventh day for the group to which Ans was administrated), the mouse serum was taken, and colony stimulating activity (CSA) was measured. For a CSA assay in serum, 50 µl of CSA assay serum was added to a medium comprising 50 µl of bone marrow cells (1.5 × 10^6 cells/ml) aseptically recovered from the femur of a normal female ICR mouse, 200 µl of FCS, 450 µl of 0.6% agar and 300 µl of × 2 DMEM, and the mixture was stirred and cultured in 5% CO2 at 37°C for 10 days, a cell mass comprising at least 30 cells was counted as one colony, and the number of the colonies was defined as the CSA of a serum.

[8] = CY 300 mg/kg i.v. + L-anserine 100 mg/kg s.c. every day, third day to seventh day
[9] = CY 300 mg/kg i.v. alone, third to seventh days

## Cn1cncc1C[C@H](NC(=O)CCN)C(=O)O [L-anserine, β-alanyl-π-methyl-L-histidine]
[1]; CY 300 mg/kg i.v. + L-anserine 100 mg/kg s.c. every day, third and seventh days, versus CY alone control group
  spontaneous proliferation ability of bone marrow cells: at least two times higher than the control group
[1]; CY 300 mg/kg i.v. + L-anserine 100 mg/kg s.c. every day, third to seventh days, versus CY alone control group
  spontaneous proliferation ability of bone marrow cells: significantly higher than that of the control group
[2]; fifth and seventh days
  IL-3 productivity of the spleen cells: 1.5 times higher than the control group
[2]; third to seventh days, versus CY alone control group
  IL-3 productivity of the spleen cells: higher than the control group
[3]
  CFU-s activity: significantly higher
[4]; CY 300 mg/kg i.v. + L-anserine 100 mg/kg s.c. every day, eighth and ninth days
  number of leukocytes: ~1.5 times higher than that of the control
[4]; CY 300 mg/kg i.v. + L-anserine 100 mg/kg s.c. every day, seventh to ninth days, versus CY alone control group
  number of leukocytes: higher than that of the control group
[5]; [8]
  decrease of content of hemoglobin: inhibited
  decrease of the number of erythrocytes: inhibited
[6]
  recovery of the concentration of hemoglobin: promoted
  recovery of the number of erythrocytes: promoted
[7]; CY 300 mg/kg i.v. + L-anserine 100 mg/kg s.c. every day, third day
  colony stimulating activity (CSA) in serum: 1.5 times higher than the control group
[7]; CY 300 mg/kg i.v. + L-anserine 100 mg/kg s.c. every day, third to seventh days, versus CY alone control
  colony stimulating activity (CSA) in serum: higher than that of the control

## O=P1(N(CCCl)CCCl)NCCCO1 (centres unmarked) [CY, cyclophosphamide]
[1]; CY 300 mg/kg i.v. alone, fifth day
  spontaneous proliferation ability of bone marrow cells: once recovered to the normal level
[1]; CY 300 mg/kg i.v. alone, first to third days
  spontaneous proliferation ability of bone marrow cells: remarkably inhibited
[1]; CY 300 mg/kg i.v. alone, seventh to ninth days
  spontaneous proliferation ability of bone marrow cells: again decreased
[2]; first to third days
  productivity of IL-3 by spleen cells: inhibited
[2]; on and after the fifth day, versus normal conditions
  productivity of IL-3 by spleen cells: increase of IL-3 productivity by two times
[4]; 7 days after CY 300 mg/kg i.v.
  The number of leukocytes: 32.8 ± 8.0 X 100/µl
[4]; 8 days after CY 300 mg/kg i.v.
  The number of leukocytes: 67.4 ± 8.1 X 100/µl
[4]; 9 days after CY 300 mg/kg i.v.
  The number of leukocytes: 66.6 ± 7.2 X 100/µl
[4]; CY 300 mg/kg i.v. alone, time course after administration
  number of leukocytes: decreased immediately after the administration, and gradually recovered before the seventh to ninth day
[5]; [9]
  amount of hemoglobin: decrease, resulting in anemia
  number of erythrocytes: decrease, resulting in anemia
[7]; CY 300 mg/kg i.v. alone, after the third day
  colony stimulating activity (CSA) in serum: the inhibition was compensated by stimulation of CSA
[7]; CY 300 mg/kg i.v. alone, first day
  colony stimulating activity (CSA) in serum: inhibited
